Reference: US6442423B1, “Device for iontophoretic administration of drugs” (Hadasit Medical Research Services & Development Limited, priority 1998, dated 2002)
Several values for one entry are separate records, joined by “and”; a condition that tells them apart may be missing. Equal entries are not always repeated.

How the values were obtained:
[1] = iontophoresis, rabbit eyes; cited from earlier work
[2] = INT; cited from earlier work
[3] = test system: experimentally induced keratitus; conditions: experimentally induced keratitus in the rabbit eye; cited from earlier work
[4] = Effect of current applied and duration of iontophoresis on drug cornea concentration (Experiment 6); type: in vivo, Albino rabbits; design: Gentimicin concentration in the cornea, Average: unit not given here
Excerpt: The purpose of this experiment was to determine the effect of the current applied and duration on the drug cornea concentration.

[5] = INT, drug incorporated in soft agar gel; cited from earlier work
[6] = monkey eye, cited from earlier work
[7] = Release of gentamicin into the rabbit eye using hydrogel-probe iontophoresis (Example 5)
Procedure: Thirty six healthy rabbits (age 2-3 months, weight 2000 grams) were used. The study conformed with the ARVO Resolution of the Use of Animals in Research. The animals were anesthetized with intramuscular injections of ketamin HCl […] (Park Davis, Morris Plains, N.J.) and xylazine […] (Mobay, Shawnee, Kans.). Iontophoresis was carried out as follows: the distal end of the hydrogel-probe placed in a device as shown in FIG. 2 (diameter of 3 mm and 2 mm thick) was gently applied to the cornea of the rabbit while the anode of the iontophoretic system is inserted into the other end of the device and the cathode is attached to the ear of the animal.
A single concentration of 10 mg/ml gentamicin in the hydrogel-probe (dd) was studied, using two time periods of iontophoresis: long periods (60 seconds) and short periods (10 seconds). Six groups of rabbits, 6 animals per group, were treated with one of the treatments described in the following Table 1.
In group 3, one drop of topical gentamicin (14 mg/ml) was instilled into the eye every 5 minutes for 1 hour. In groups 4 and 5, mock iontophoresis was performed by placing a device containing 10 mg/ml of gentamicin on the cornea for 60 and 10 seconds without switching on the electric current. In group 6 iontophoresis was applied for 2 minutes with the dd containing NaCl 0.9% (instead of gentamicin).
Ten minutes after completion of the iontophoresis, or the control drug delivery technique in each animal, the surface of the eye was washed with 5 ml of NaCl 0.9%. The animals were sacrificed after 15 minutes by injecting an overdose of sodium pentobarbital. The entire cornea was excised with corneal scissors and rinsed again with 5 ml of NaCl 0.9%. The cornea was weighed, minced with a blade and placed into microcentrifuge tubes. To each tube, 0.5 ml 0.01 M phosphate buffered saline (pH 7.2) was added. The tubes were incubated for 18 hours in a water bath heated to 37° C., shaking at 100 oscillations/min. Thereafter the tubes were centrifuged for 10 min. at 2000 rpm. From each tube 125 microliter of the supernatant were assayed for gentamicin concentration using Abbot TDx. The concentration of gentamicin in the cornea was calculated as described before^(5). Gentamicin concentrations are expressed in micrograms per gram of tissue or per milliliter of buffer. 3 way ANOVA test was used for statistical evaluation.

[8] = INT via the cornea, aphakic rabbit eye; cited from earlier work
[9] = Group 2: hydrogel probe 10 mg/ml gentamicin, 0.5 mA, 10 sec iontophoresis
[10] = Group 4: hydrogel probe 10 mg/ml gentamicin, 0.0 mA, 60 sec (mock iontophoresis)

Compound: Cc1nnc(SCC2=C(C(=O)O)N3C(=O)[C@@H](NC(=O)Cn4cnnn4)[C@H]3SC2)s1 [cefazoline]
- concentrations in the vitreous [1]: high concentrations

Compound: CC(=O)N1CCN(c2ccc(OCC3COC(Cn4ccnc4)(c4ccc(Cl)cc4Cl)O3)cc2)CC1 (stereo not shown) [ketaconazole]
- penetration into the animals' anterior chamber [2]: increased the penetration

Compound: CC1(C)S[C@@H]2[C@H](NC(=O)[C@H](C(=O)O)c3ccsc3)C(=O)N2[C@H]1C(=O)O [ticarcillin]
- concentrations in the vitreous [1]: high concentrations

Compound: NC[C@H]1O[C@H](O[C@H]2[C@H](O)[C@@H](O[C@H]3O[C@H](CO)[C@@H](O)[C@H](N)[C@H]3O)[C@H](N)C[C@@H]2N)[C@H](N)C[C@@H]1O [tobramycin]
- efficacy of INT versus topical administration [3]: more effective than topical administration

Compound: gentamicin
- Gentimicin concentration in the cornea, Average ([4]; Group 1: hydrogel probe 10 mg/ml, 0.0 mA, 60 sec): 2.71 ± 2.0
- Gentimicin concentration in the cornea, Average ([4]; Group 2: hydrogel probe 10 mg/ml, 0.1 mA, 60 sec): 4.5 ± 3.5
- Gentimicin concentration in the cornea, Average ([4]; Group 3: hydrogel probe 10 mg/ml, 0.3 mA, 60 sec): 42.2 ± 27.1
- Gentimicin concentration in the cornea, Average ([4]; Group 4: hydrogel probe 10 mg/ml, 0.6 mA, 60 sec): 88.6 ± 38.6
- Gentimicin concentration in the cornea, Average ([4]; Group 5: hydrogel probe 10 mg/ml, 0.0 mA, 10 sec): 0.0
- Gentimicin concentration in the cornea, Average ([4]; Group 6: hydrogel probe 10 mg/ml, 0.1 mA, 10 sec): 4.0 ± 2.4
- Gentimicin concentration in the cornea, Average ([4]; Group 7: hydrogel probe 10 mg/ml, 0.3 mA, 10 sec): 10.2 ± 4.1
- Gentimicin concentration in the cornea, Average ([4]; Group 8: hydrogel probe 10 mg/ml, 0.6 mA, 10 sec): 22.0 ± 7.8
- Gentimicin concentration in the cornea, Average ([4]; Group 9: subconj. inj., 0.3% w/v, no current): 30 ± 18.6
- gentamicin concentrations in the intraocular fluid ([4]; Groups 3 and 4 (0.3 and 0.6 mA, 60 sec)): High gentamicin concentrations
- increase in drug concentration as compared with SC injections ([4]; current of 0.6 mAmp): 3 times
- increase in drug concentration over a non-current application (diffusion only) ([4]; current of 0.6 mAmp): about 30 times
- concentrations transferred into the rabbit cornea [5]: marked concentrations
- concentrations of gentamicin in the vitreous ([6]; transscleral INT using solutions, for several hours): bactericidal concentrations
- damage to the retina, repeated Electro Retino Graphia (ERG) tests ([6]; transscleral INT): did not show damage to the retina
- Gentamicin concentration in cornea, Average ([7]; Group 1: hydrogel probe 10 mg/ml gentamicin, 0.5 mA, 60 sec iontophoresis): 33.1 ± 9.3 µg/g
- Gentamicin concentration in cornea, Average [7, 9]: 6.5 ± 0.8 µg/g
- Gentamicin concentration in cornea, single eyes (Eye No. 1-6) [7, 9]: 6.27 µg/g and 6.53 µg/g and 4.92 µg/g and 6.70 µg/g and 7.05 µg/g and 7.52 µg/g
- Gentamicin concentration in cornea, Average ([7]; Group 3: eye drops, one drop every 5 minutes for 1 hour, no current): 2.1 ± 1.0 µg/g
- Gentamicin concentration in cornea, Average [7, 10]: 2.6 ± 0.3 µg/g
- Gentamicin concentration in cornea, single eyes (Eye No. 1-6) [7, 10]: 2.01 µg/g and 2.55 µg/g and 2.78 µg/g and 2.89 µg/g and 2.70 µg/g and 2.96 µg/g
- Gentamicin concentration in cornea, Average ([7]; Group 5: hydrogel probe 10 mg/ml gentamicin, 0.0 mA, 10 sec (mock iontophoresis)): 1.1 ± 0.4 µg/g
- levels of gentamicin in the vitreous [8]: high levels
- concentrations in the vitreous [1]: high concentrations
